Reference: patent publication US20240216402A1, “PHARMACEUTICAL COMPOSITION, AND PREPARATION METHOD THEREFOR AND APPLICATION THEREOF” (QILU PHARMACEUTICAL CO., LTD., priority 2021, published 2024)
Converted amounts (≈) assume the structure as drawn. Blank lines part the entries; values can stand above or below the compound they belong to.

What was measured:
[1] = system: other related serine, threonine and tyrosine except EGFR wild type; assay: kinase selectivity; type: biochemical; conditions: in the detected concentration range
[2] = solubility in solvents (description of the substance); type: physicochemical
From the text: (§1) The solubility of the drug directly influences the dissolution rate of the composition containing the drug, which in turn influences the bioavailability of the pharmaceutical composition. Therefore, how to improve the dissolution rate of pharmaceutical compositions containing spirocyclic aryl phosphorus oxide in solvents other than hydrochloric acid has become an urgent problem to be solved.

[3] = Determination of solubility in buffers at different pHs (saturated solubility by HPLC); type: physicochemical; conditions: for solubility at 24 h: thermodynamic from solid, 37° C.
Experimental: (§2) The solubilities of spirocyclic aryl phosphorus oxides in buffers at different pHs were determined. Nine test samples of 4 mg were each weighed and added to sample bottles of 1.5 mL, and then different solvents (0.1 mol/L HCl, 0.01 mol/L HCl, pH3.5 acetate buffer, pH4.5 acetate buffer, pH5.5 phosphate buffer, pH6.5 phosphate buffer, pH6.8 phosphate buffer, pH7.5 phosphate buffer and water) of 1 mL were added. According to the dissolution, the raw material compounds were continuously added to form a saturated solution. A magneton was added to the saturated solution and then stirred on a magnetic agitator (temperature was 37° C., away from light). After stirring for 24 hours, the samples were taken and centrifuged, and the residual solid samples in the lower layer were tested by X-ray powder diffraction (XRPD). The upper sample was filtered by a filter membrane, the final pH value of the filtrate was measured, and the saturated solubility of the compound was determined by high performance liquid chromatography (HPLC).

[4] = XRPD of residual solid in the solubility test; type: physicochemical; conditions: 24 hrs
Experimental: as §2

[5] = hygroscopicity (description of the substance); type: physicochemical
From the text: as §1

[6] = particle size distribution of raw material samples; type: physicochemical
From the text: In the present invention, D50 refers to the particle size corresponding to the cumulative volume distribution percentage of spirocyclic aryl phosphorus oxides or pharmaceutically acceptable salts thereof reaching 50% measured from a small particle size; D90 refers to the particle size corresponding to the cumulative volume distribution percentage of spirocyclic aryl phosphorus oxides or pharmaceutically acceptable salts thereof reaching 90% measured from a small particle size.

inhibitory activity to other kinases [1]: Low inhibitory activity
solubility ([2]; 1 mol/L hydrochloric acid solution): easily soluble
solubility ([2]; 1 mol/L sodium hydroxide solution): practically insoluble, or insoluble
solubility ([2]; acetonitrile): slightly soluble
solubility ([2]; dichloromethane): easily soluble
solubility ([2]; ethanol): slightly soluble
solubility ([2]; methanol): sparingly soluble
solubility ([2]; water): slightly soluble
Dose/solubility (mL, in 60 mg specifications) ([3]; 0.01 mol/L HCl (pH2.02)): 8.69 mL
Conclusions (solubility class) ([3]; 0.1 mol/L HCl (pH 1.02)): soluble (10 ml to less than 30 ml)
Dose/solubility (mL, in 60 mg specifications) ([3]; 0.1 mol/L HCl (pH 1.02)): 1.12 mL
solubility at 24 h ([3]; pH 2.02, simulated gastric fluid, 0.01 mol/L HCl (pH2.02)): 6900 µg/mL (≈ 12.1 mM)
solubility at 24 h ([3]; pH 3.5 acetate buffer, aqueous buffer, pH 3.5 buffer (pH 3.53), acetate): 279000 µg/mL (≈ 491 mM)
Dose/solubility (mL, in 60 mg specifications) ([3]; pH 3.5 buffer (pH 3.53)): 0.22 mL
solubility at 24 h ([3]; pH 4.5 acetate buffer, aqueous buffer, pH 4.5 buffer (pH 4.49), acetate): 108000 µg/mL (≈ 190 mM)
Dose/solubility (mL, in 60 mg specifications) ([3]; pH 4.5 buffer (pH 4.49)): 0.56 mL
Dose/solubility (mL, in 60 mg specifications) ([3]; pH 5.5 buffer (pH 5.47)): 8.45 mL
solubility at 24 h ([3]; pH 5.5 phosphate buffer, aqueous buffer, pH 5.5 buffer (pH 5.47), phosphate): 7100 µg/mL (≈ 12.5 mM)
Dose/solubility (mL, in 60 mg specifications) ([3]; pH 6.5 buffer (pH 6.45)): 5.41 mL
solubility at 24 h ([3]; pH 6.5 phosphate buffer, aqueous buffer, pH 6.5 buffer (pH 6.45), phosphate): 11100 µg/mL (≈ 19.5 mM)
Dose/solubility (mL, in 60 mg specifications) ([3]; pH 6.8 buffer (pH 6.83)): 16.67 mL
solubility at 24 h ([3]; pH 6.8 phosphate buffer, aqueous buffer, pH 6.8 buffer (pH 6.83), phosphate): 3600 µg/mL (≈ 6.33 mM)
Dose/solubility (mL, in 60 mg specifications) ([3]; pH 7.5 buffer (pH 7.53)): 70.59 mL
solubility at 24 h ([3]; pH 7.5 phosphate buffer, aqueous buffer, pH 7.5 buffer (pH 7.53), phosphate): 850 µg/mL (≈ 1.49 mM)
solubility at 24 h ([3]; simulated gastric fluid, 0.1 mol/L HCl (pH 1.02)): 53400 µg/mL (≈ 93.8 mM)
solubility at 24 h ([3]; water (pH 6.33)): 60 µg/mL (≈ 0.105 mM)
Dose/solubility (mL, in 60 mg specifications) ([3]; water (pH 6.33)): >250 mL
XRPD (crystal form of residual solid) ([4]; 0.01 mol/L HCl (pH2.02)): no change
XRPD (crystal form of residual solid) ([4]; 0.1 mol/L HCl (pH 1.02)): no change
XRPD (crystal form of residual solid) ([4]; pH 3.5 buffer (pH 3.53)): no change
XRPD (crystal form of residual solid) ([4]; pH 4.5 buffer (pH 4.49)): no change
XRPD (crystal form of residual solid) ([4]; pH 5.5 buffer (pH 5.47)): no change
XRPD (crystal form of residual solid) ([4]; pH 6.5 buffer (pH 6.45)): no change
XRPD (crystal form of residual solid) ([4]; pH 6.8 buffer (pH 6.83)): no change
XRPD (crystal form of residual solid) ([4]; pH 7.5 buffer (pH 7.53)): no change
XRPD (crystal form of residual solid) ([4]; water (pH 6.33)): no change
hygroscopicity [5]: almost no hygroscopicity
Compound: COc1cc(N2CCC3(CCN(C)CC3)CC2)ccc1Nc1ncc(Cl)c(Nc2ccccc2P(C)(C)=O)n1 [spirocyclic aryl phosphorus oxide, (2-((5-chloro-2-((2-methoxy-4-(9-methyl-3,9-diazaspiro[5.5]undecan-3-yl)phenyl)amino)pyrimidin-4-yl)amino)phenyl)dimethylphosphine oxide]

Particle size D10 (μm) [6]: 1.3 μm
Particle size D50 (μm) [6]: 10.1 μm
Particle size D90 (μm) [6]: 27.1 μm
Compound: COc1cc(N2CCC3(CCN(C)CC3)CC2)ccc1Nc1ncc(Cl)c(Nc2ccccc2P(C)(C)=O)n1 [Sample 2]

Particle size D10 (μm) [6]: 2.3 μm
Particle size D50 (μm) [6]: 18.2 μm
Particle size D90 (μm) [6]: 79.6 μm
Compound: COc1cc(N2CCC3(CCN(C)CC3)CC2)ccc1Nc1ncc(Cl)c(Nc2ccccc2P(C)(C)=O)n1 [Sample 6]

More lines, now with the values behind:

Compound: COc1cc(N2CCC3(CCN(C)CC3)CC2)ccc1Nc1ncc(Cl)c(Nc2ccccc2P(C)(C)=O)n1 [Sample 3]
Particle size D10 (μm) [6]: 1.6 μm
Particle size D50 (μm) [6]: 13.0 μm
Particle size D90 (μm) [6]: 40.3 μm

Compound: COc1cc(N2CCC3(CCN(C)CC3)CC2)ccc1Nc1ncc(Cl)c(Nc2ccccc2P(C)(C)=O)n1 [Sample 7]
Particle size D10 (μm) [6]: 6.8 μm
Particle size D50 (μm) [6]: 47.9 μm
Particle size D90 (μm) [6]: 122 μm

Compound: COc1cc(N2CCC3(CCN(C)CC3)CC2)ccc1Nc1ncc(Cl)c(Nc2ccccc2P(C)(C)=O)n1 [Sample 4]
Particle size D10 (μm) [6]: 5.0 μm
Particle size D50 (μm) [6]: 23.8 μm
Particle size D90 (μm) [6]: 62 μm

Compound: COc1cc(N2CCC3(CCN(C)CC3)CC2)ccc1Nc1ncc(Cl)c(Nc2ccccc2P(C)(C)=O)n1 [Sample 5]
Particle size D10 (μm) [6]: 1.8 μm
Particle size D50 (μm) [6]: 16.1 μm
Particle size D90 (μm) [6]: 69 μm

Compound: COc1cc(N2CCC3(CCN(C)CC3)CC2)ccc1Nc1ncc(Cl)c(Nc2ccccc2P(C)(C)=O)n1 [Sample 1]
Particle size D10 (μm) [6]: 0.7 μm
Particle size D50 (μm) [6]: 5.4 μm
Particle size D90 (μm) [6]: 11.6 μm

Compound: COc1cc(N2CCC3(CCN(C)CC3)CC2)ccc1Nc1ncc(Cl)c(Nc2ccccc2P(C)(C)=O)n1 [Sample 8]
Particle size D10 (μm) [6]: 7.8 μm
Particle size D50 (μm) [6]: 63.1 μm
Particle size D90 (μm) [6]: 193 μm
